Among the data in patent publication US5736556A, “Tropane-2-aldoxime derivatives as nevro transmitter reuptake inhibitors” (NeuroSearch A/S, priority 1994, dated 1998) are IC50 values, retold here.

The target of experiment [1] is T1, ^3 H-noradrenaline uptake (noradrenaline transporter) (Rattus norvegicus, UniProt Q63380).
T1 construct: Hippocampi from male Wistar rats (150-200 g) are homogenized; from tissue; host or cells: P2 synaptosomes of hippocampus, male Wistar rats
Nature of the experiment: In vitro inhibition of ^3 H-noradrenaline (^3 H-NA) uptake in hippocampal synaptosomes. In kind it is biochemical, rat (male Wistar). To be noted: ^3 H-NA 1 nM, 90 min at 37° C. An excerpt: (§1) The compounds of the invention have also been tested for their ability to inhibit reuptake of dopamine(DA) noradrenalin(NA) and serotonin(5-HT) in synaptosomes.
(§2) Specific neurotransmitter transporters/uptake sites on nerve terminals presumably function to terminate neuronal signaling by removing the neurotransmitters dopamine, noradrenaline and serotonin, respectively, from the synaptic cleft. The activity of the transporter integral proteins can be measured in vitro by synaptosomal uptake of ^3 H-dopamine, ^3 H-noradrenaline and ^3 H-serotonine, respectively.
In vitro inhibition of ^3 H-noradrenaline (^3 H-NA) uptake in hippocampal synaptosomes
(§3) Tissue preparation: Preparations are performed at 0°-4° C. unless otherwise indicated. Hippocampi from male Wistar rats (150-200 g) are homogenized for 5-10 sec in 100 volumes of ice-cold 0.32M sucrose containing 1 mM pargyline using an Ultra-Turrax homogenizer. Monoamine oxidase activity will be inhibited in the presence of pargyline. The homogenate is centrifuged at 1000×g for 10 min. The resulting supernatant is then centrifuged at 27,000×g for 50 min and the supernatant is discarded. The pellet (P2) is resuspended in oxygenated (equilibrated with an atmosphere of 96% O2 : 4% CO2 for at least 30 min) Krebs-Ringer incubation buffer (2000 ml per g of original tissue) at pH 7.2 containing 122 mM NaCl, 0.16 mM EDTA, 4.8 mM KCl, 12.7 mM Na2 HPO4, 3.0 mM NaH2 PO4, 1.2 mM MgSO4, 0.97 mM CaCl2, 10 mM glucose and 1 mM ascorbic acid.
Assay: Aliquots of 4.0 ml tissue suspension are added to 100 μl of test solution and 100 μl of ^3 H-NA (1 nM, final concentration), mixed and incubated for 90 min at 37° C. Non-specific uptake is determined using desipramine (1 μM, final concentration). After incubation the samples are poured directly onto Whatman GF/C glass fibre filters under suction. […] The amount of radioactivity on the filters is determined by conventional liquid scintillation counting. Specific uptake is calculated as the difference between total uptake and non-specific uptake. […]

Experiment [2] concerns the target T2, dopamine transporter (^3 H-dopamine uptake) (Rattus norvegicus, UniProt P23977).
T2 construct: Corpi striati from male Wistar rats (150-200 g) are homogenized; from tissue; host or cells: P2 synaptosomes of corpus striatum, male Wistar rats
Nature of the experiment: In vitro inhibition of ^3 H-dopamine (^3 H-DA) uptake in striatal synaptosomes. In kind it is biochemical, rat (male Wistar). To be noted: ^3 H-DA 1 nM, 25 min at 37° C.
Description: as §1, §2
In vitro inhibition of ^3 H-dopamine (^3 H-DA) uptake in striatal synaptosomes
as §3, with “Tissue preparations:” for “Tissue preparation:”, “indicated. Corpi striati” for “indicated. Hippocampi”, “resulting supermatant” for “resulting supernatant”, “buffer (8000” for “buffer (2000”, “MgSO4, 1” for “MgSO4, 0.97”
Assay: Aliquots of 4.0 ml tissue suspension are added to 100 μl of test solution and 100 μl of ^3 H-DA (1 nM, final concentration), mixed and incubated for 25 min at 37° C. Non-specific uptake is determined using benztropine (10 μM, final concentration). After incubation the samples are poured directly onto Whatman GF/C glass fibre filters under suction. […] The amount of radioactivity on the filters is determined by conventional liquid scintillation counting. Specific uptake is calculated as the difference between total uptake and non-specific uptake. […]

Usually IC50 stands for the concentration needed to halve the response being measured. Higher therefore signals weaker potency.

Where a name gives a salt, the structure may show the parent alone.

T1 sequence (Q63380 1-617): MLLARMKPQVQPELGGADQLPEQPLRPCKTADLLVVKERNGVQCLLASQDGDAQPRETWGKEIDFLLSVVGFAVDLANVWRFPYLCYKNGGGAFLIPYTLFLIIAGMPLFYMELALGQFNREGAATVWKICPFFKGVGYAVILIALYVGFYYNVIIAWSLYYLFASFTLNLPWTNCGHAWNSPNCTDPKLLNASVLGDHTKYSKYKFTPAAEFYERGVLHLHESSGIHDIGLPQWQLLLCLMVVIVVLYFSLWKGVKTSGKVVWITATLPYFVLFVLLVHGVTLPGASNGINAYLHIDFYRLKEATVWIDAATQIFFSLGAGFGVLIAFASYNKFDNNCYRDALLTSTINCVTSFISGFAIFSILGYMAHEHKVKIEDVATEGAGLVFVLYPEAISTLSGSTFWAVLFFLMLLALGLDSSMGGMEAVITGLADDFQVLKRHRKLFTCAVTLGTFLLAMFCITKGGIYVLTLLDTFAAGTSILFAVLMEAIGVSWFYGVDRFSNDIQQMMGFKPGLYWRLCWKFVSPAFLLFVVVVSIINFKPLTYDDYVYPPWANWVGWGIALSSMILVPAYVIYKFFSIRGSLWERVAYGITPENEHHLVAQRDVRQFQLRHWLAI
T2 sequence (P23977 whole entry): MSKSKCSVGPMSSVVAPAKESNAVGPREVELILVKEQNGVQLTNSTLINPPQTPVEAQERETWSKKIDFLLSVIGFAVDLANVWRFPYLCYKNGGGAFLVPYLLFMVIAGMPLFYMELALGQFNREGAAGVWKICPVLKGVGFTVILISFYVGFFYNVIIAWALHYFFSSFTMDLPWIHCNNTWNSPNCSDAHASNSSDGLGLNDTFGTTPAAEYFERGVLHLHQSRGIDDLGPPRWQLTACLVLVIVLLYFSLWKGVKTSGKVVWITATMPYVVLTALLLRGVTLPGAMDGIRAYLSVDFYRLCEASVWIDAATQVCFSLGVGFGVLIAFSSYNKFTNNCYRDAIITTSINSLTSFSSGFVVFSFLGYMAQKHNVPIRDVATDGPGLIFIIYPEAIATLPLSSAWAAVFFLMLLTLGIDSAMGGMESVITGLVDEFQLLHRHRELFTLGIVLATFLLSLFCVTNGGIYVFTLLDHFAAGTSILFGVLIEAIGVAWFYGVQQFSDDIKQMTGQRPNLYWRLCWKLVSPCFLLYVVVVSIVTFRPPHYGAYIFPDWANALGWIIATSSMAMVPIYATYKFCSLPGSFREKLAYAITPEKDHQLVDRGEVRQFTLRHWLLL

For `CON=C[C@@H]1[C@@H](c2ccc(Cl)c(Cl)c2)C[C@@H]2CC[C@H]1N2` [(1R,2R,3S)-N-Normethyl-3-(3,4-dichlorophenyl)tropane-2-O-methyl-aldoxime, hydrochloride], the IC50 in experiment [1] was 1.3 nM; in experiment [2] it was 2 nM.

As for `CON=C[C@@H]1[C@@H](c2ccc(Cl)c(Cl)c2)C[C@@H]2CC[C@H]1N2C` [(1R,2R,3S)-3-(3,4-dichlorophenyl)-tropane-2-O-methyl-aldoxime, H2 SO4], the IC50 is 1.3 nM in experiment [1] and 3 nM in experiment [2].
